Reference: patent US6337087B1, “Aqueous pharmaceutical composition comprising an active ingredient which is highly insoluble in water” (Aziende Chimiche Riunite Angelini Francesco A.C.R.A.F. …, priority 1997, dated 2002)
Values after ≈ are worked out from the molar mass of the structure shown.

Assay: initial solubility of the active ingredient
Type: physicochemical
Settings: active ingredient without liposomes, aqueous

solubility: 3 µg/mL (≈ 9.34 µM)
Compound: O=C(O)c1nn(Cc2ccc(Cl)cc2Cl)c2ccccc12 [lonidamine]
